Results as given in patent US20260200951A1, “NOVEL BORATE COMPOUND SOLUBLE IN ALIPHATIC HYDROCARBON SOLVENT” (AGC INC., priority 2023, published 2026).

Key:
[1] = Evaluation of solubility (visual appearance of stored solutions in aliphatic hydrocarbon solvents); assay type: physicochemical; conditions: for solubility room temperature, 3 days: stored at room temperature for 3 days
Text: The symbols used to evaluate solubility in the Tables mean the following: • ◯: homogeneous transparent solution state • Δ: cloudy state • x: two-phase separation or crystallization

[2] = Evaluation of polymerization performance (ethylene/1-octene solution polymerization with CGC catalyst, compound as cocatalyst); conditions: CGC 3 μmol, catalyst:cocatalyst=1:1, TIBA 3000 μmol, 40 ml solvent (MCH), 1-octene 1 mL, ethylene 8 atm, 50° C., 6 min
Protocol: A general polymerization method using the compound of the present invention (compound (1-2)) as a cocatalyst is shown below.
Into 100 mL autoclave in a glove box were added 1-octene, triisobutylaluminum (TIBA, 1.00 M hexane solution) and a solvent (methylcyclohexane (MCH)) to prepare a comonomer solution. A polymerization catalyst (dimethylsilylene(tert-butylamide)-(tetramethylcyclopentadienyl)-titanium (IV)-dichloride (CGC)), triisobutylaluminum (1.00 M hexane solution), and a solvent were added to prepare a catalyst solution at a predetermined concentration, and the solution was transferred to a Schlenk tube. Compound (1-2) (cocatalyst) was dissolved in a solvent, and a cocatalyst solution at a predetermined concentration was prepared and transferred to the Schlenk tube. The comonomer solution, the catalyst solution, and the cocatalyst solution were mixed, and prepared such that the total amount of the solvent and the total amount of triisobutylaluminum would be constant. The inside of the autoclave was purged with ethylene gas, the catalyst solution and the cocatalyst solution were successively added to the autoclave, and the ethylene gas pressure was immediately adjusted to a predetermined pressure, and the mixture was stirred at 50° C. for 6 min. […]

[3] = 0.6 wt % (≈3 mM) borate compound/n-hexane solution, visual observation
[4] = 50 wt % borate compound/methylcyclohexane solution, visual observation
[5] = 50 wt % borate compound/methylcyclohexane solution, stored at −15° C. for 3 days, visual observation

Structure (SMILES) | solubility room temperature, 3 days [1, 3] | solubility room temperature, 3 days [1, 4] | solubility −15° C., 3 days [1, 5] | solubility at 3 days ([1]; organic solvent or mixture, 0.6 wt % (≈3 mM) borate compound/n-hexane solution, stored at −15° C. for 3 days, visual observation) [µM] | solubility −15° C., 3 days ([1]; 0.6 wt % (≈3 mM) borate compound/n-hexane solution, stored at −15° C. for 3 days, visual observation) | solubility in aliphatic hydrocarbon solvents at low temperatures, in words ([1]; compared to Comparative Examples 1 to 5, summary of Tables 1 and 2) | ethylene-octene copolymer obtained [2] [mg]
CCCCCCCCCCCCCCCCN(CCCCCCCCCCCCCCCC)c1ccccc1 [Comparative Example 1, N,N-Dihexadecylanilinium tetrakis(pentafluorophenyl) borate] | ∘ | ∘ | ∘ | < 3000 |  |  | 
CCCCCCCCCCCCCCCCCC[NH+](CCCCCCCCCCCCCCCCCC)c1ccc(CCCC)cc1.Fc1c(F)c(F)c([B-](c2c(F)c(F)c(F)c(F)c2F)(c2c(F)c(F)c(F)c(F)c2F)c2c(F)c(F)c(F)c(F)c2F)c(F)c1F [Example 2, N,N-Dioctadecyl-4-butylanilinium tetrakis(pentafluorophenyl) borate] | ∘ | ∘ | ∘ |  | ∘ | remarkably high solubility | 47.3
